The values below come from patent US10273246B2, “Methods and compositions of substituted 5H-[1,2,5] oxadiazolo [3′,4′:5,6] pyrazino[2,3-B] indole analogs as inhibitors of β-catenin/T-cell factor protein-protein interactions” (University of Utah Research Foundation, priority 2015, dated 2019).

Experiment [1] deals with T1, β-catenin/Tcf4 PPI (Homo sapiens, UniProt P35222).
T1 sequence (P35222 138-686): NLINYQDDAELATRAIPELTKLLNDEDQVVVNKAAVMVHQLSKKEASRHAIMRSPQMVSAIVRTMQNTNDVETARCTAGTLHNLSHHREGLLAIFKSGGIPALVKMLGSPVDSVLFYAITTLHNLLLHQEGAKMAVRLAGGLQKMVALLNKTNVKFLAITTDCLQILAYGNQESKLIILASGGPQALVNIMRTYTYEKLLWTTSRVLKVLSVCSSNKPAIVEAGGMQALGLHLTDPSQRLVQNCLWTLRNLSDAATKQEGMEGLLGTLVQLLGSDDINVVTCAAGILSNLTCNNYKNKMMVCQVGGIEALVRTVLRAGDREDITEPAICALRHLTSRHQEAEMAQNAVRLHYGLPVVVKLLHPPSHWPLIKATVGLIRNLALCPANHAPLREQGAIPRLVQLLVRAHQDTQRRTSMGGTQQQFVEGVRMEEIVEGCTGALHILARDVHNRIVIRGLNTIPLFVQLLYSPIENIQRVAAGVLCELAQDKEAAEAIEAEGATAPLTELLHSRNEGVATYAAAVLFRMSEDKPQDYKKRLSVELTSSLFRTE
The settings on record: for inhibitory potency for the β-catenin/Tcf PPI in the biochemical assays: result in words, FP and AlphaScreen.
Source text: (§3) After β-catenin and fluorescein-Tcf4 form a protein-protein complex, the fluorophore is attached to a high-molecular-weight protein complex (≥60 kDa) and has a low rotational speed when it is excited by plane-polarized light. […] When an inhibitor completely disrupts the β-catenin/fluorescein-Tcf4 PPI, the fluorophore is only attached to Tcf4 (≤6 kDa), and the emitted light after excitation will be largely depolarized due to a high rotational speed of the fluorophore. AlphaScreen is a bead-based assay. […] On laser excitation at 680 nm, the photo sensitizers inside the donor beads convert ambient oxygen to a singlet oxygen state. Only when the donor and acceptor beads are brought within 200 nm can the singlet oxygen molecules diffuse to the acceptor beads, resulting in extensive emission at 570 nm.

The test system of the next experiment is SW480 cells. Description: MTs cell viability assay, SW480. Format: cell-based, human. The conditions noted are these: for growth of SW480 cells: result in words, MTs; for IC50: Homo sapiens, SW480, MTs cell viability, 72 h, read-out: IC50 ± SD SW480. Here is the method: (§1) Colorectal cancer cell lines, SW480, HT29, an HCT116, and human normal cell line HEK293 were seeded in 96-well plates at 4×10^3 cells/well, maintained overnight at 37° C., and incubated with the tested compounds at various concentrations. Cell viability was monitored after 72 h using a freshly prepared mixture of 1 part phenazine methosulfate (PMS, Sigma) solution (0.92 mg/mL) and 19 parts 3-(4,5-dimethylthiazol-2-yl)-5-(3-carboxymethoxyphenyl)-2-(4-sulfophenyl)-2H-tetrazolium (MTs, Promega) solution (2 mg/mL). Cells were incubated in 10 μL of this solution at 37° C. for 3 h, and A490 was measured. […] Experiments were performed in triplicate.

In experiment [2] the test system is canonical Wnt signaling in pcDNA3.1-β-catenin transfected HEK293 cells. Briefly: TOPFlash luciferase reporter assay, HEK293. The class given is cell-based, human. The settings on record: for TOPFlash luciferase activity / transactivation of canonical Wnt signaling: result in words, Wnt-activated HEK293. As for the experimental part:
(§2) FuGENE 6 (E2962, Promega) in a 96-well plate format was used for the transfection of HEK293 and SW480 cells according to the manufacturer's instructions. […] SW480 cells were co-transfected with 60 ng of the TOPFlash or FOPFlash reporter gene and 40 ng pCMV-RL normalization reporter. Cells were cultured in DMEM and 10% fatal bovine serum at 37° C. for 24 h, and different concentrations of inhibitors were then added. After 24 h, the luciferase reporter activity was measured using the Dual-Glo system (E2940, Promega). Normalized luciferase activity in response to the treatment with the inhibitors was compared with that obtained from the cells treated with DMSO. Experiments were performed in triplicate.

The subject of another experiment is HCT116 cells. Description: MTs cell viability assay, HCT116. The class given is cell-based, human. The conditions noted are these: for growth of HCT116 cells: result in words, MTs; for IC50: Homo sapiens, HCT-116, MTs cell viability, 72 h, read-out: IC50 ± SD HCT116. As for the experimental part:
as §1

A further experiment concerns HT29 cells. Description: MTs cell viability assay, HT29. Format: cell-based. The settings on record: Homo sapiens, HT-29, 72 h, read-out: IC50 ± SD HT29. As for the experimental part: as §1
The target of experiment [3] is T1, β-catenin/Tcf4 PPI. Description: biochemical.
Source text: as §3
Experiment [4] addresses T1, β-catenin/Tcf4 PPI.
Source text: as §3
Experiment [5] relates to FOPFlash luciferase (reporter with eight mutant Tcf binding sites). Format: cell-based, human. Here is the method:
as §2

The test system of experiment [6] is Wnt/β-catenin target genes in SW480 cells.
Procedure: Total RNAs were extracted with TRIzol (Ser. […] The threshold cycle (CT) values were normalized to that of internal reference GAPDH. The primer pairs for human GAPDH were forward: [NT] and reverse: [NT]; for human HPRT forward: [NT] and reverse: [NT]; for human AXIN2 forward: [NT] and reverse: [NT]; for human c-myc forward: [NT] and reverse: [NT]; and for human cyclin D1 forward: [NT] and reverse: [NT]. Experiments were performed in triplicate.
The next experiment addresses T2, β-catenin/Tcf4 (Homo sapiens, UniProt P35222).
T2 sequence (P35222 138-686): T1 sequence (P35222 138-686)
The settings on record: FP selectivity assay, known inhibitors, footnotes a, b; read-out: Ki ± SD β-catenin/Tcf4; cited from earlier work.

For a further experiment, the target named is T3, β-catenin/APC-R3 (Homo sapiens, UniProt P35222).
T3 construct: Wild-type β-catenin and its mutants (residues 138-686) were cloned; 6xHis; made in house; host or cells: E. coli BL21 DE3
T3 sequence (P35222 138-686): T1 sequence (P35222 138-686)
The conditions noted are these: FP selectivity assay, known inhibitors, footnotes a, b; read-out: Ki ± SD β-catenin/APC-R3; cited from earlier work.

Setting [7] is: read-out: FP Ki ± SD, Table 6, fragments of 18.
Setting [8] is: read-out: Ki ± SD FP, Table 8, resynthesized 18 and derivatives.
Where [9] appears, read: read-out: Ki ± SD AlphaScreen, Table 8, resynthesized 18 and derivatives.

Structures are written as SMILES. Where two headings read alike, the source gives them in different places. A value given as a limit tells only on which side of the number the result lay.

For the molecule `N/N=C1/c2ccccc2-c2nc3nonc3nc21` [Compound 20, (Z)-9-Hydrazono-9H-Indeno[1,2-B][1,2,5]Oxadiazolo[3,4-E]Pyrazine], at β-catenin/Tcf4 PPI [1] (setting [7]), the Ki was 230 ± 6.2 µM.

As to `O=C(O)CCCn1c2ccccc2c2nc3nonc3nc21` [Compound 33, 4-(5H-[1,2,5]Oxadiazolo[3′,4′:5,6]Pyrazino[2,3-B]Indol-5-yl)Butanoic Acid], in the experiment on SW480 cells, the “growth of SW480 cells” value is given as “did not exhibit the inhibitory activities”. Further, the “TOPFlash luciferase activity / transactivation of canonical Wnt signaling” value in experiment [2] is listed as “did not inhibit”. In addition, the “growth of HCT116 cells” value in the experiment on HCT116 cells is “did not exhibit the inhibitory activities”.

Consider `O=C(O)c1ccc2nc(-c3ccc(Cl)cc3)c(-c3ccc(Cl)cc3)nc2c1` [Compound 15], for which the IC50 with SW480 cells was determined as 38 ± 1.1 µM; in the experiment on HT29 cells it was 41 ± 1 µM; with HCT116 cells, 22 ± 5.9 µM.

Take `NC(=S)N/N=C1/c2ccccc2-c2nc3nonc3nc21` [Compound 21]: the Ki on β-catenin/Tcf4 PPI [1] (setting [7]) was found to be 240 ± 4.6 µM. Also, the “inhibitory potency for the β-catenin/Tcf PPI in the biochemical assays” value against β-catenin/Tcf4 PPI [1] was “some inhibitory activities”.

Molecule `CC(C)CNC(=O)c1nonc1N` [Compound 24] gave a Ki at β-catenin/Tcf4 PPI [3] of over 2000 µM.

Take `O=C(O)c1cc(-c2ccc(Oc3ccc(Cl)cc3)cc2)on1` [Compound 16]: the half-inhibitory concentration (IC50) in the experiment on SW480 cells is over 400 µM; with HT29 cells it was 430 ± 25 µM; in the experiment on HCT116 cells it was over 400 µM.

In the case of `Nc1nonc1C(=O)N1CCCC1` [Compound 23], the Ki on β-catenin/Tcf4 PPI [1] (setting [7]) was 1700 ± 28 µM. The “inhibitory potency for the β-catenin/Tcf PPI in the biochemical assays” value against β-catenin/Tcf4 PPI [1] is “some inhibitory activities”.

Regarding `N#CCCCn1c2ccccc2c2nc3nonc3nc21` [Compound 36, 4-(5H-[1,2,5]Oxadiazolo[3′,4′:5,6]Pyrazino[2,3-B]Indol-5-yl)Butanenitrile], the Ki on β-catenin/Tcf4 PPI [1] (setting [8]) is 160 ± 8.9 µM; on β-catenin/Tcf4 PPI [4] (setting [9]) it was 120 ± 4.2 µM.

For the molecule `c1ccc2c(c1)c1nc3nonc3nc1n2CCc1nnn[nH]1` [Compound 37, 5-(2-(2H-Tetrazol-5-yl)Ethyl)-5H-[1,2,5]Oxadiazolo[3′,4′:5,6]Pyrazino[2,3-B]Indole], in experiment [5] (even at 200 μM, pcDNA3.1-β-catenin transfected HEK293), the FOPFlash luciferase activity entry is “did not affect”. Also, the IC50 with SW480 cells came out at 20 µM. Also, the “TOPFlash luciferase activity / transactivation of canonical Wnt signaling” value in [2] is given as “suppressed the TOPFlash luciferase activity in a dose-dependent manner”. The “expression of house-keeping gene HPRT” value in experiment [6] (SW480) is recorded as “did not affect”. The “expression of AXIN2, cyclin D1, and c-myc (mRNA)” value in [6] (SW480, dose-dependent) is “down-regulated”.

Consider `CCc1ccc(-c2nc(CSCC(=O)NCCc3ccccc3)c(C)o2)cc1` [Compound 8, reference compound], for which the “FOPFlash luciferase reporter activity” value in experiment [5] (reference inhibitors) is recorded as “inhibited”.

For `O=C(O)c1cc2nc(-c3ccc4c(c3)OCO4)c(-c3ccc4c(c3)OCO4)nc2cc1O` [Compound 17], the IC50 with SW480 cells was 110 ± 21 µM; in [2] (Homo sapiens, pcDNA3.1-β-catenin transfected HEK293, 24 h, read-out: TOPFlash IC50 ± SD Wnt-activated HEK293), over 100 µM; with HT29 cells, 300 µM; with HCT116 cells, 250 ± 21 µM. Besides, the Ki amounted to 8.7 ± 1 µM at β-catenin/Tcf4 PPI [1] (read-out: Ki + SD FP, Table 3, purchased screening hits) and 12 ± 0.78 µM on β-catenin/Tcf4 PPI [4] (read-out: Ki + SD AlphaScreen, Table 3, purchased screening hits).

For `O=C1c2ccccc2-c2nc3nonc3nc21` [Compound 19B, 9H-Indeno[1,2-B][1,2,5]Oxadiazolo[3,4-E]Pyrazin-9-One], the Ki at β-catenin/Tcf4 PPI [1] (setting [7]) was determined as 310 ± 11 µM. In addition, the “inhibitory potency for the β-catenin/Tcf PPI in the biochemical assays” value against β-catenin/Tcf4 PPI [1] was “some inhibitory activities”.

Turning to `c1ccc2c(c1)[nH]c1nc3nonc3nc12` [Compound 27, 5H-[1,2,5]Oxadiazolo[3′,4′:5,6]Pyrazino[2,3-B]Indole], the Ki at β-catenin/Tcf4 PPI [1] (setting [8]) was found to be 280 ± 12 µM; at β-catenin/Tcf4 PPI [4] (setting [9]), 120 ± 8.7 µM. Further, on β-catenin/Tcf4 PPI [1], the “inhibitory potency for the β-catenin/Tcf PPI in the biochemical assays” value was “poor inhibitory potency”.

On to `CCOC(=O)CCCn1c2ccccc2c2nc3nonc3nc21` [Compound 32, Ethyl 4-(5H-[1,2,5]Oxadiazolo[3′,4′:5,6]Pyrazino[2,3-B]Indol-5-yl)Butanoate], for which the “growth of SW480 cells” value with SW480 cells is on record as “did not exhibit the inhibitory activities”. Besides, in the experiment on HCT116 cells, the “growth of HCT116 cells” value was “did not exhibit the inhibitory activities”.

For `Nc1nonc1NC(=O)Cn1c2ccccc2c2nc3nonc3nc21` [Compound 26, 2-(5H-[1,2,5]Oxadiazolo[3′,4′:5,6]Pyrazino[2,3-B]Indol-5-yl)-N-(4-Amino-1,2,5-Oxadiazol-3-yl)Acetamide], the “growth of SW480 cells” value in the experiment with SW480 cells is given as “did not exhibit the inhibitory activities”. In addition, the “TOPFlash luciferase activity / transactivation of canonical Wnt signaling” value in experiment [2] is recorded as “did not inhibit”. Besides, the “growth of HCT116 cells” value with HCT116 cells is listed as “did not exhibit the inhibitory activities”.

`COC(=O)CCn1c2ccccc2c2nc3nonc3nc21` [Compound 30, Methyl 3-(5H-[1,2,5]Oxadiazolo[3′,4′:5,6]Pyrazino[2,3-B]Indol-5-yl)Propanoate]: the “growth of SW480 cells” value in the experiment with SW480 cells was “did not exhibit the inhibitory activities”. In addition, in the experiment on HCT116 cells, the “growth of HCT116 cells” value is on record as “did not exhibit the inhibitory activities”.

As for `COC1=C(C[C@H](C)O)C2c3c(c(O)cc4c3-c3c(cc(O)c5c3C2C(C[C@H](C)O)=C(OC)C5=O)OCO4)C1=O` (stereo partly shown) [Compound 2], the Ki is 150 ± 19 µM on β-catenin/Tcf4 and 130 ± 0.38 µM at β-catenin/APC-R3. Moreover, the results for the concentration for half-maximal inhibition (IC50) in the experiment on SW480 cells, in the experiment on HT29 cells and in the experiment with HCT116 cells were 5.5 ± 1.3 µM, 1.8 ± 0.13 µM and 1.2 ± 0.48 µM, respectively.

The molecule `NC(=O)c1nonc1N` [Compound 22] registered a Ki at β-catenin/Tcf4 PPI [3] of over 2000 µM.

With `Nc1nonc1C(=O)NCc1ccccc1` [Compound 25], the Ki on β-catenin/Tcf4 PPI [1] (setting [7]) stood at 1700 ± 37 µM. The “inhibitory potency for the β-catenin/Tcf PPI in the biochemical assays” value against β-catenin/Tcf4 PPI [1] is on record as “some inhibitory activities”.
